Laboratory results as given in patent publication US12421205B2, “GLP-1 receptor agonist” (HYUNDAI PHARM CO., LTD., priority 2019, dated 2025).

Key:
[1] = target: T1, human GLP-1 receptor (Homo sapiens, UniProt P43220); experiment: cAMP activity test (cAMP dynamic HTRF kit) in CHO-K1/GLP-1 receptor-expressing cells; assay type: cell-based; settings: cAMP activity, CHO-K1/GLP-1 receptor-expressing cells; read-out: EC50
T1 construct: host or cells: CHO-K1
Method in brief: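 Cells in HBSS with 0.1% BSA, 0.5 mM IBMX and 5 mM HEPES, then lysed; cAMP-d2 and anti-cAMP cryptate added for 3 h. HTRF read-out, where FRET signal is inversely proportional to intracellular cAMP.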

[2] = target: T2, hERG (Homo sapiens, UniProt Q12809); experiment: hERG inhibition test (Predictor hERG Fluorescence Polarization assay kit); assay type: binding; settings: probe kit Tracer (fluorescent hERG ligand), hERG % inhibition at 10 uM, relative to E-4031 and solvent control
T2 construct: purchased Invitrogen PV5365
T2 sequence (Q12809 whole entry): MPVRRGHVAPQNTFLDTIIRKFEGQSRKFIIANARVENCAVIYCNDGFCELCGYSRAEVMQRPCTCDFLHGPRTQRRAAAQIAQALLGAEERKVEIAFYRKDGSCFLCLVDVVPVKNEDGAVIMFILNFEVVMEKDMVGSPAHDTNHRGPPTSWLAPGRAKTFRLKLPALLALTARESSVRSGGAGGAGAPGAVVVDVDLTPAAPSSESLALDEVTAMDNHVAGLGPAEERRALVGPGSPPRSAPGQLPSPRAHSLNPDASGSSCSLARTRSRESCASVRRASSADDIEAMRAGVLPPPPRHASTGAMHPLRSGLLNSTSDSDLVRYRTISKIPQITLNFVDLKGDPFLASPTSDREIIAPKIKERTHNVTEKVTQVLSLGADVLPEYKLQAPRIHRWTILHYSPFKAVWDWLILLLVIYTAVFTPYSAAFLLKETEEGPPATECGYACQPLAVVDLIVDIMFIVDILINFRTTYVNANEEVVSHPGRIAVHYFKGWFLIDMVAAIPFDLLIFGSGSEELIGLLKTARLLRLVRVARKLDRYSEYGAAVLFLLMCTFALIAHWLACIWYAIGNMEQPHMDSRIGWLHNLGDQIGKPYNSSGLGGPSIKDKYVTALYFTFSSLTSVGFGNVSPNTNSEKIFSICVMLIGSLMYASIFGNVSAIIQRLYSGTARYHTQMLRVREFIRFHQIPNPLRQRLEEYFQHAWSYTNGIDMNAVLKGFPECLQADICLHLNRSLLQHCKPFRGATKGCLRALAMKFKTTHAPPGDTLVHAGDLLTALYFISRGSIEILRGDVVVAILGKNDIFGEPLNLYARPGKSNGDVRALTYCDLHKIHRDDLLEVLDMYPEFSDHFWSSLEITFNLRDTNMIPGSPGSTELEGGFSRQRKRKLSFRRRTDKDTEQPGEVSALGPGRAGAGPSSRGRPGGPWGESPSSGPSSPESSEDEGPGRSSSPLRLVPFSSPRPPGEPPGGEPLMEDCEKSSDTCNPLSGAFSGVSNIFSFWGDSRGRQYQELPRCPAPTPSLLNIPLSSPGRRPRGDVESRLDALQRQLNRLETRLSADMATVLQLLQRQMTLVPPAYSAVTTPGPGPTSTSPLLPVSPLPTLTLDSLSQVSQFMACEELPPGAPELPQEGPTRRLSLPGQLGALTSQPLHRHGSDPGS
Method in brief: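 Competitive fluorescence-polarization binding of fluorescent tracer to hERG membrane preparation, 2.5 h at room temperature, mP read at 531/579 nm. % inhibition at 10 uM test compound, scaled between solvent control (0%) and E-4031 (100%).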

T1 sequence (P43220 24-463): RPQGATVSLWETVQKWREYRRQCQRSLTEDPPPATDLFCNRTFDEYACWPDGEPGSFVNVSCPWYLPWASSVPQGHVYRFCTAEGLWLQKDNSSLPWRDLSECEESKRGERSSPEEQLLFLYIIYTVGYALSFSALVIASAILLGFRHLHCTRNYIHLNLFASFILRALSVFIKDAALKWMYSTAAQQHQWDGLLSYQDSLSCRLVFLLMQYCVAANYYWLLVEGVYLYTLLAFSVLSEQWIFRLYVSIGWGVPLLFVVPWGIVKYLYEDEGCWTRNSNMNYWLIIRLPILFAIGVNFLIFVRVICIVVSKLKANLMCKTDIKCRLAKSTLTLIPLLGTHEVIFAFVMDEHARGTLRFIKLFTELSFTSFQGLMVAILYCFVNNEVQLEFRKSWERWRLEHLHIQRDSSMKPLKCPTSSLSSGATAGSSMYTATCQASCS

Structure (SMILES) | EC50 [1] [nM] | inhibition at 2.5 h, 10 µM [2] [%]
Cc1cccc(COc2cccc(-c3ccc(Cc4nc5ccc(C(=O)O)cc5n4CC4CCCO4)c(F)c3)n2)c1 (stereo not drawn) [Example 80, 2-(2-fluoro-4-(6-(3-methylbenzyloxy)pyridin-2-yl)benzyl)-1-((tetrahydrofuran-2-yl)methyl)-1H-benzo[d]imidazole-6-carboxylic acid] | 190 | -25.2
COc1cccc(COc2cccc(-c3ccc(Cc4nc5ccc(C(=O)O)cc5n4CC4CCCO4)c(F)c3)n2)c1 (stereo not drawn) [Example 81, 2-(2-fluoro-4-(6-(3-methoxybenzyloxy)pyridin-2-yl)benzyl)-1-((tetrahydrofuran-2-yl)methyl)-1H-benzo[d]imidazole-6-carboxylic acid] | 210 | -43.5
O=C(O)c1ccc2nc(Cc3ccc(-c4cccc(OCc5ccc(Cl)cc5F)n4)c(F)c3F)n(C[C@@H]3CCO3)c2c1 [Example 82, (S)-2-(4-(6-(4-chloro-2-fluorobenzyloxy)pyridin-2-yl)-2,3-difluorobenzyl)-1-(oxetan-2-ylmethyl)-1H-benzo[d]imidazole-6-carboxylic acid] | 4 | 7.24
O=C(O)c1ccc2nc(Cc3ccc(-c4cccc(OCc5ccccc5)n4)cc3F)n(CC3CCCO3)c2c1 (stereo not drawn) [Example 83, 2-(4-(6-(benzyloxy)pyridin-2-yl)-2-fluorobenzyl)-1-((tetrahydrofuran-2-yl)methyl)-1H-benzo[d]imidazole-6-carboxylic acid] | 160 | 2.37
O=C(O)c1ccc2nc(Cc3c(F)cc(-c4cccc(OCc5ccc(Cl)cc5F)n4)cc3F)n(C[C@@H]3CCO3)c2c1 [Example 84, (S)-2-(4-(6-(4-chloro-2-fluorobenzyloxy)pyridin-2-yl)-2,6-difluorobenzyl)-1-(oxetan-2-ylmethyl)-1H-benzo[d]imidazole-6-carboxylic acid] | 4 | -1.15
O=C(O)c1ccc2nc(Cc3ccc(-c4cccc(OCc5ccc(F)c(F)c5)n4)cc3F)n(CC3CCCO3)c2c1 (stereo not drawn) [Example 85, 2-(4-(6-(3,4-difluorobenzyloxy)pyridin-2-yl)-2-fluorobenzyl)-1-((tetrahydrofuran-2-yl)methyl)-1H-benzo[d]imidazole-6-carboxylic acid] | 74 | -12.9
O=C(O)c1ccc2nc(Cc3cc(F)c(-c4cccc(OCc5ccc(Cl)cc5F)n4)cc3F)n(C[C@@H]3CCO3)c2c1 [Example 86, (S)-2-(4-(6-(4-chloro-2-fluorobenzyloxy)pyridin-2-yl)-2,5-difluorobenzyl)-1-(oxetan-2-ylmethyl)-1H-benzo[d]imidazole-6-carboxylic acid] | < 3.2 | 8.93
N#Cc1ccc(COc2cccc(-c3ccc(Cc4nc5ccc(C(=O)O)cc5n4CC4CCCO4)c(F)c3)n2)cc1 (stereo not drawn) [Example 87, 2-(4-(6-(4-cyanobenzyloxy)pyridin-2-yl)-2-fluorobenzyl)-1-((tetrahydrofuran-2-yl)methyl)-1H-benzo[d]imidazole-6-carboxylic acid] | 18 | 32.9
O=C(O)c1ccc2nc(Cc3ccc(-c4cccc(OCc5ccc([N+](=O)[O-])cc5)n4)cc3F)n(CC3CCCO3)c2c1 (stereo not drawn) [Example 88, 2-(2-fluoro-4-(6-(4-nitrobenzyloxy)pyridin-2-yl)benzyl)-1-((tetrahydrofuran-2-yl)methyl)-1H-benzo[d]imidazole-6-carboxylic acid] | 16 | 22.1
O=C(O)c1ccc2nc(Cc3ccc(-c4cccc(OCc5ccc(Br)cc5F)n4)cc3F)n(CC3CCCO3)c2c1 (stereo not drawn) [Example 89, 2-(4-(6-(4-bromo-2-fluorobenzyloxy)pyridin-2-yl)-2-fluorobenzyl)-1-((tetrahydrofuran-2-yl)methyl)-1H-benzo[d]imidazole-6-carboxylic acid] | 11 | 22.1
Cc1cccc(COc2cccc(-c3ccc(Cc4nc5ccc(C(=O)O)cc5n4CC4CCCO4)cc3F)n2)c1 (stereo not drawn) [Example 90, 2-(3-fluoro-4-(6-(3-methylbenzyloxy)pyridin-2-yl)benzyl)-1-((tetrahydrofuran-2-yl)methyl)-1H-benzo[d]imidazole-6-carboxylic acid] | 250 | 20.2
O=C(O)c1ccc2nc(Cc3ccc(-c4ccc(F)c(OCc5ccc(Cl)cc5F)n4)cc3F)n(CC3CCCO3)c2c1 (stereo not drawn) [Example 91, 2-(4-(6-(4-chloro-2-fluorobenzyloxy)-5-fluoropyridin-2-yl)-2-fluorobenzyl)-1-((tetrahydrofuran-2-yl)methyl)-1H-benzo[d]imidazole-6-carboxylic acid] | 7.2 | -68.2
O=C(O)c1ccc2nc(Cc3ccc(-c4ccc(F)c(OCc5ccc(Cl)cc5F)c4)c(F)c3)n(CC3CCCO3)c2c1 (stereo not drawn) [Example 92, 2-((3′-(4-chloro-2-fluorobenzyloxy)-2,4′-difluorobiphenyl-4-yl)methyl)-1-((tetrahydrofuran-2-yl)methyl)-1H-benzo[d]imidazole-6-carboxylic acid] | 78 | 8.68
N#Cc1ccc(COc2cc(-c3ccc(Cc4nc5ccc(C(=O)O)cc5n4CC4CCCO4)cc3F)ccc2F)c(F)c1 (stereo not drawn) [Example 93, 2-((3′-(4-cyano-2-fluorobenzyloxy)-2,4′-difluorobiphenyl-4-yl)methyl)-1-((tetrahydrofuran-2-yl)methyl)-1H-benzo[d]imidazole-6-carboxylic acid] | 1100 | 8.9
O=C(O)c1ccc2nc(Cc3ccc(-c4ccc(F)c(OCc5ccc(Cl)cc5F)c4)cc3F)n(CC3CCCO3)c2c1 (stereo not drawn) [Example 95, 2-((3′-(4-chloro-2-fluorobenzyloxy)-3,4′-difluorobiphenyl-4-yl)methyl)-1-((tetrahydrofuran-2-yl)methyl)-1H-benzo[d]imidazole-6-carboxylic acid] | 100 | -38.2
N#Cc1ccc(COc2cc(-c3ccc(Cc4nc5ccc(C(=O)O)cc5n4CC4CCCO4)c(F)c3)ccc2F)c(F)c1 (stereo not drawn) [Example 96, 2-((3′-(4-cyano-2-fluorobenzyloxy)-3,4′-difluorobiphenyl-4-yl)methyl)-1-((tetrahydrofuran-2-yl)methyl)-1H-benzo[d]imidazole-6-carboxylic acid] | 830 | 5.19
O=C(O)c1ccc2nc(Cc3ccc(-c4cccc(OCc5ccc(C(F)(F)F)cc5)n4)c(F)c3)n(CC3CCCO3)c2c1 (stereo not drawn) [Example 97, 2-(3-fluoro-4-(6-(4-(trifluoromethyl)benzyloxy)pyridin-2-yl)benzyl)-1-((tetrahydrofuran-2-yl)methyl)-1H-benzo[d]imidazole-6-carboxylic acid] | 31 | 6.11
O=C(O)c1ccc2nc(Cc3ccc(-c4cccc(OCc5ccc(F)c(F)c5)n4)c(F)c3)n(CC3CCCO3)c2c1 (stereo not drawn) [Example 98, 2-(4-(6-(3,4-difluorobenzyloxy)pyridin-2-yl)-3-fluorobenzyl)-1-((tetrahydrofuran-2-yl)methyl)-1H-benzo[d]imidazole-6-carboxylic acid] | 61 | -2.76
O=C(O)c1ccc2nc(Cc3ccc(-c4cccc(OCc5ccc(Cl)c(F)c5)n4)c(F)c3)n(CC3CCCO3)c2c1 (stereo not drawn) [Example 99, 2-(4-(6-(4-chloro-3-fluorobenzyloxy)pyridin-2-yl)-3-fluorobenzyl)-1-((tetrahydrofuran-2-yl)methyl)-1H-benzo[d]imidazole-6-carboxylic acid] | 70 | -0.33
O=C(O)c1ccc2nc(Cc3ccc(-c4cccc(OCc5cc(F)cc(Cl)c5)n4)c(F)c3)n(CC3CCCO3)c2c1 (stereo not drawn) [Example 100, 2-(4-(6-(3-chloro-5-fluorobenzyloxy)pyridin-2-yl)-3-fluorobenzyl)-1-((tetrahydrofuran-2-yl)methyl)-1H-benzo[d]imidazole-6-carboxylic acid] | 320 | -10.2
O=C(O)c1ccc2nc(Cc3ccc(-c4cccc(OCc5c(F)cccc5Cl)n4)c(F)c3)n(CC3CCCO3)c2c1 (stereo not drawn) [Example 101, 2-(4-(6-(2-chloro-6-fluorobenzyloxy)pyridin-2-yl)-3-fluorobenzyl)-1-((tetrahydrofuran-2-yl)methyl)-1H-benzo[d]imidazole-6-carboxylic acid] | 320 | -2.37
O=C(O)c1ccc2nc(Cc3ccc(-c4ccc(F)c(OCc5ccc(Cl)cc5F)c4)cn3)n(CC3CCCO3)c2c1 (stereo not drawn) [Example 102, 2-((5-(3-(4-chloro-2-fluorobenzyloxy)-4-fluorophenyl)pyridin-2-yl)methyl)-1-((tetrahydrofuran-2-yl)methyl)-1H-benzo[d]imidazole-6-carboxylic acid] | 460 | -31.9
N#Cc1ccc(COc2cccc(-c3cc(F)c(Cc4nc5ccc(C(=O)O)cc5n4C[C@@H]4CCO4)c(F)c3)n2)c(F)c1 [Example 103, (S)-2-(4-(6-(4-cyano-2-fluorobenzyloxy)pyridin-2-yl)-2,6-difluorobenzyl)-1-(oxetan-2-ylmethyl)-1H-benzo[d]imidazole-6-carboxylic acid] | < 3.2 | 5.66
COCCn1c(Cn2ccc(-c3cccc(OCc4ccc(C#N)cc4F)c3)cc2=O)nc2ccc(C(=O)O)cc21 [Example 104, 2-((4-(3-(4-cyano-2-fluorobenzyloxy)phenyl)-2-oxopyridin-1(2H)-yl)methyl)-1-(2-methoxyethyl)-1H-benzo[d]imidazole-6-carboxylic acid] | 240 | 8.69
